PubChem BioAssay (NCI)
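At the GI50, growth is halved. At the TGI there is no net growth.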

Experiments:
Assay in all cases: inhibition of tumour cell growth, NCI panel, 384-well format
HCT-15 colon = tested on: HCT-15 colon
M14 melanoma = tested on: M14 melanoma
OVCAR-4 ovarian = tested on: OVCAR-4 ovarian
OVCAR-8 ovarian = tested on: OVCAR-8 ovarian
OVCAR-5 ovarian = tested on: OVCAR-5 ovarian
PC-3 prostate = tested on: PC-3 prostate
HCC-2998 colon = tested on: HCC-2998 colon
NCI-H23 lung = tested on: NCI-H23 lung
HS 578T breast = tested on: HS 578T breast
SNB-19 CNS = tested on: SNB-19 CNS
UO-31 renal = tested on: UO-31 renal
SF-268 CNS = tested on: SF-268 CNS
SN12C renal = tested on: SN12C renal

`CC(C)(O)c1cc(Nc2cc(Oc3cn(C4CC4)nc3C3CCOCC3)ccn2)ccn1` gave a GI50 (HCT-15 colon) greater than 100 µM, a TGI (HCT-15 colon) greater than 100 µM and a GI50 (M14 melanoma) greater than 100 µM. The TGI (M14 melanoma) was greater than 100 µM, the GI50 (OVCAR-4 ovarian) was greater than 100 µM and the TGI (OVCAR-4 ovarian) was greater than 100 µM. For the same molecule, the GI50 (OVCAR-8 ovarian) was greater than 100 µM, the TGI (OVCAR-8 ovarian) was greater than 100 µM and the GI50 (OVCAR-5 ovarian) was greater than 100 µM. The TGI (OVCAR-5 ovarian) was greater than 100 µM, the GI50 (PC-3 prostate) was 76.1 µM and the TGI (PC-3 prostate) was greater than 100 µM. The GI50 (HCC-2998 colon) was greater than 100 µM, the TGI (HCC-2998 colon) was greater than 100 µM and the GI50 (NCI-H23 lung) was 23.1 µM. It also gave a TGI (NCI-H23 lung) greater than 100 µM, a GI50 (HS 578T breast) of 37.7 µM and a TGI (HS 578T breast) greater than 100 µM. It also gave a GI50 (SNB-19 CNS) greater than 100 µM, a TGI (SNB-19 CNS) greater than 100 µM and a GI50 (UO-31 renal) greater than 100 µM. It also gave a TGI (UO-31 renal) greater than 100 µM, a GI50 (SF-268 CNS) greater than 100 µM and a TGI (SF-268 CNS) greater than 100 µM. For the same molecule, the GI50 (SN12C renal) was greater than 82 µM and the TGI (SN12C renal) was greater than 100 µM.
